Reference: PMC11722285, “Exploring the Potential of Malvidin and Echiodinin as Probable Antileishmanial Agents Through In Silico Analysis and In Vitro Efficacy” (Molecules, 2025)
Read-outs that look alike come from different tables or passages of the source.

Key:
Format in all cases: cell-based
[1] = tested on: L. amazonensis axenic amastigotes; assay: In vitro antileishmanial activity, axenic amastigotes (MTT); conditions: for IC50: Leishmania amazonensis, 48 h, read-out: IC50 (µM) Axenic amastigotes L. amazonensis; for Selectivity Index (SI) Axenic amastigotes L. amazonensis: ratio between CC50 (macrophages) and IC50
Method: (§1) L. amazonensis (IFLA/BR/1967/PH-8), L. braziliensis (MHOM/BR/1975/M2903), and L. infantum (MHOM/BR/1970/BH46) were used as parasites. Stationary promastigotes were grown at a 24 °C in complete Schneider’s medium (Sigma-Aldrich, St. Louis, MO, USA), which was composed of medium plus 20% (v/v) heat-inactivated fetal bovine serum (FBS; Sigma-Aldrich, USA) and 20 mM L-glutamine with a pH of 7.4 [139]. To obtain the axenic amastigotes, 10^9 stationary promastigotes were washed three times in sterile phosphate-buffered saline (PBS 1X and incubated in 5 mL FBS for 48 h (L. amazonensis and L. braziliensis) and 72 h (L. infantum), respectively, at 37 °C. Parasites were washed in cold PBS 1x, and their morphology was evaluated after staining using the Giemsa method in an optical microscope, as previously described.
(§2) AmpB (0 to 10.8 µM; Sigma-Aldrich, USA) was used as control. Cell viability was assessed through 3-(4.5-dimethylthiazol-2-yl)-2.5-diphenyl tetrazolium bromide (Sigma-Aldrich, USA) method. Optical density (OD) values were measured in a microplate spectrophotometer (Molecular Devices, Spectra Max Plus, San Jose, CA, USA) at 570 nm. IC50 values were calculated by sigmoidal regression of dose–response curves in Microsoft Excel software (version 10.0). Two-tailed Student’s t-tests (p < 0.05) were used to compare IC50 values between malvidin and echioidinin, assessing significant differences in inhibitory activity.

[2] = tested on: L. braziliensis axenic amastigotes; assay: as above; conditions: for IC50: Leishmania braziliensis, 48 h, read-out: IC50 (µM) Axenic amastigotes L. braziliensis; for Selectivity Index (SI) Axenic amastigotes L. braziliensis: ratio between CC50 (macrophages) and IC50
Method: as §1, §2

[3] = tested on: L. infantum axenic amastigotes; assay: as above; conditions: for IC50: Leishmania infantum, 48 h, read-out: IC50 (µM) Axenic amastigotes L. infantum; for Selectivity Index (SI) Axenic amastigotes L. infantum: ratio between CC50 (macrophages) and IC50
Method: as §1, §2

O+ human red blood cells = assay: Hemolytic activity; conditions: lysis of 50% of O+ human red blood cells; 1 h; mean ± SD
Method: (§3) Cytotoxicity was evaluated ex vivo in murine macrophages and human red blood cells, for which concentrations inhibiting 50% of macrophages (CC50) and red blood cells (RBC50) were determined. Briefly, murine cells (5 × 10^5) or a 5% human red blood cells suspension were incubated in the presence of malvidin (0 to 301.84 µM) or echioidinin (0 to 356.76 µM) AmpB (0 to 10.82 µM) was used as control. Cells were incubated in RPMI 1640 medium for 48 h (murine macrophages) or 1 h (red blood cells) at 37 °C in 5% CO2. Macrophage viability was assessed using the MTT method. The red blood cell suspension was centrifuged at 1000× g for 10 min at 4 °C, after which the percentage of cell lysis was evaluated spectrophotometrically at 570 nm. The hemolysis was determined by replacing the natural products with an equal volume of phosphate-buffered saline with a pH of 7.4 (PBS—negative control) or distilled water (positive control). CC50 and RBC50 values were calculated by sigmoidal regression of dose–response curves in Microsoft Excel software (version 10.0). SI was calculated as the ratio between CC50 and IC50 values.

[4] = Cytotoxicity assay in macrophages (MTT); conditions: mouse, murine macrophages, mean ± SD
Method: as §3, with “Briefly, murine cells (5 × 10^5) or a 5% human red blood cells suspension were incubated in the presence of malvidin (0 to 301.84 µM) or echioidinin (0 to 356.76 µM) AmpB (0 to 10.82 µM) was used as control.” left out

[5] = tested on: L. braziliensis stationary promastigotes; assay: In vitro antileishmanial activity, stationary promastigotes (MTT); conditions: for IC50: Leishmania braziliensis, 48 h, read-out: IC50 (µM) Stationary Promastigotes L. braziliensis; for Selectivity Index (SI) Stationary Promastigotes L. braziliensis: ratio between CC50 (macrophages) and IC50
Method: as §1, §2

[6] = tested on: L. infantum stationary promastigotes; assay: as above; conditions: for IC50: Leishmania infantum, 48 h, read-out: IC50 (µM) Stationary Promastigotes L. infantum; for Selectivity Index (SI) Stationary Promastigotes L. infantum: ratio between CC50 (macrophages) and IC50
Method: as §1, §2

[7] = tested on: L. amazonensis stationary promastigotes; assay: as above; conditions: for IC50: Leishmania amazonensis, 48 h, read-out: IC50 (µM) Stationary Promastigotes L. amazonensis; for Selectivity Index (SI) Stationary Promastigotes L. amazonensis: ratio between CC50 (macrophages) and IC50
Method: as §1, §2

[8] = tested on: L. infantum-infected murine macrophages; assay: Treatment of infected macrophages; conditions: 48 h
Method: (§4) To evaluate the efficacy of malvidin or echioidinin for treating infected macrophages, murine cells (5 × 10^5) were plated on round glass coverslips in 24-well plates in RPMI 1640 medium supplemented with 20% (v/v) FBS and 20 mM L-glutamine at a pH of 7.4 and incubated for 24 h at 37 °C in 5% CO2. Stationary promastigotes were added to the wells at a ratio of 10 parasites per macrophage, and cultures were incubated further for 48 h at 37 °C for 5% CO2. Free parasites were removed by extensive washing with RPMI 1640 medium, and infected macrophages were treated with malvidin (30.18, 60.37, and 120.74 µM), echioidinin (35.18, 70.36, and 140.72 µM), or AmpB (2.70 and 5.41 µM) for 48 h at […] in 5% CO2. After fixation with 4% paraformaldehyde, cells were washed and stained with Giemsa, and the infection percentage, the number of amastigotes per infected macrophage, and the reduction in the infection percentage were determined by counting 200 cells in triplicate, using an optical microscope.

[9] = tested on: L. amazonensis-infected murine macrophages; assay: Treatment of infected macrophages; conditions: 48 h
Method: as §4

[10] = tested on: L. braziliensis-infected murine macrophages; assay: Treatment of infected macrophages; conditions: 48 h
Method: as §4

[11] = stationary promastigotes, mean ± SD

Question: What does the source list for COc1cc(O)c2c(=O)cc(-c3ccccc3O)oc2c1 [Echioidinin, echioidinin]?
Answer: IC50 ([1]; axenic amastigotes, mean ± SD): 336 ± 19 µM; Selectivity Index (SI) Axenic amastigotes L. amazonensis [1]: 8.90; IC50 ([2]; axenic amastigotes, mean ± SD): 293 ± 20 µM; Selectivity Index (SI) Axenic amastigotes L. braziliensis [2]: 10.30; IC50 ([3]; axenic amastigotes, mean ± SD): 262 ± 17 µM; Selectivity Index (SI) Axenic amastigotes L. infantum [3]: 11.60; RBC50 (O+ human red blood cells): 3400.76 ± 78 µM; CC50 at 48 h [4]: 3010 ± 114 µM; IC50 [5, 11]: 251 ± 22 µM; Selectivity Index (SI) Stationary Promastigotes L. braziliensis [5]: 12.10; IC50 [6, 11]: 213 ± 16 µM; Selectivity Index (SI) Stationary Promastigotes L. infantum [6]: 14.00; IC50 [7, 11]: 273 ± 29 µM; Selectivity Index (SI) Stationary Promastigotes L. amazonensis [7]: 10.80; Infection After Treatment (%) ([8]; 35.18 µM): 65.50%; Infectiveness Reduction (%) ([8]; 35.18 µM): 12.08%; Number of Amastigotes per Macrophage ([8]; 35.18 µM): 4.80; Infection After Treatment (%) ([8]; 70.36 µM): 58.70%; Infectiveness Reduction (%) ([8]; 70.36 µM): 21.21%; Number of Amastigotes per Macrophage ([8]; 70.36 µM): 2.80; Infection After Treatment (%) ([8]; 140.72 µM): 50.70%; Infectiveness Reduction (%) ([8]; 140.72 µM): 31.95%; Number of Amastigotes per Macrophage ([8]; 140.72 µM): 4.20; Infection After Treatment (%) ([9]; 35.18 µM): 80.20%; Infectiveness Reduction (%) ([9]; 35.18 µM): 13.11%; Number of Amastigotes per Macrophage ([9]; 35.18 µM): 5.40; Infection After Treatment (%) ([9]; 70.36 µM): 71.80%; Infectiveness Reduction (%) ([9]; 70.36 µM): 22.21%; Number of Amastigotes per Macrophage ([9]; 70.36 µM): 3.70; Infection After Treatment (%) ([9]; 140.72 µM): 63.40%; Infectiveness Reduction (%) ([9]; 140.72 µM): 31.31%; Number of Amastigotes per Macrophage ([9]; 140.72 µM): 6.30; Infection After Treatment (%) ([10]; 35.18 µM): 56.50%; Infectiveness Reduction (%) ([10]; 35.18 µM): 17.76%; Number of Amastigotes per Macrophage ([10]; 35.18 µM): 6.40; Infection After Treatment (%) ([10]; 70.36 µM): 50.80%; Infectiveness Reduction (%) ([10]; 70.36 µM): 26.06%; Number of Amastigotes per Macrophage ([10]; 70.36 µM): 3.70; Infection After Treatment (%) ([10]; 140.72 µM): 43.20%; Infectiveness Reduction (%) ([10]; 140.72 µM): 37.12%; Number of Amastigotes per Macrophage ([10]; 140.72 µM): 3.70

Question: With COc1cc(-c2[o+]c3cc(O)cc(O)c3cc2O)cc(OC)c1O [Malvidin, malvidin] as the compound, how does the IC50 [1] read?
Answer: The IC50 was 258 ± 17 µM.

Question: And the “Selectivity Index (SI) Axenic amastigotes L. amazonensis” value [1]?
Answer: Its value is 11.30.

Question: What about the IC50 [2] of the same compound?
Answer: The IC50 was 227.9 ± 1 µM.

Question: What about the “Selectivity Index (SI) Axenic amastigotes L. braziliensis” value [2] of the same compound?
Answer: Its value is 12.70.

Question: What about the IC50 [3] of the same compound?
Answer: The IC50 was 174 ± 19 µM.

Question: What about the “Selectivity Index (SI) Axenic amastigotes L. infantum” value [3] of the same compound?
Answer: The value was 16.70.

Question: What about the “Selectivity Index (SI) Axenic amastigotes L. infantum” value ([3]; listed as malvidin) of the same compound?
Answer: Its value is 14.70.

Question: And the “RBC50” value (O+ human red blood cells)?
Answer: The value was 3120.13 ± 107 µM.

Question: And the CC50 at 48 h [4]?
Answer: The CC50 at 48 h was 2920 ± 80 µM.

Question: What about the IC50 [5] of the same compound?
Answer: Its IC50 is 164 ± 19 µM.

Question: And the “Selectivity Index (SI) Stationary Promastigotes L. braziliensis” value [5]?
Answer: Its value is 17.60.

Question: What about the IC50 [6] of the same compound?
Answer: The IC50 was 141 ± 26 µM.

Question: What about the “Selectivity Index (SI) Stationary Promastigotes L. infantum” value [6] of the same compound?
Answer: The value was 20.70.

Question: What about the IC50 [7] of the same compound?
Answer: Its IC50 is 198 ± 17 µM.

Question: And the “Selectivity Index (SI) Stationary Promastigotes L. amazonensis” value [7]?
Answer: The value was 14.70.

Question: What about the “Infection After Treatment (%)” value ([8]; 30.18 µM) of the same compound?
Answer: Its value is 61.20%.

Question: What about the “Infectiveness Reduction (%)” value ([8]; 30.18 µM) of the same compound?
Answer: The value was 17.85%.

Question: And the “Number of Amastigotes per Macrophage” value ([8]; 30.18 µM)?
Answer: Its value is 4.70.

Question: And the “Infection After Treatment (%)” value ([8]; 60.37 µM)?
Answer: Its value is 55.60%.

Question: What about the “Infectiveness Reduction (%)” value ([8]; 60.37 µM) of the same compound?
Answer: The value was 25.37%.

Question: And the “Number of Amastigotes per Macrophage” value ([8]; 60.37 µM)?
Answer: Its value is 3.70.

Question: What about the “Infection After Treatment (%)” value ([8]; 120.74 µM) of the same compound?
Answer: The value was 49.80%.

Question: What about the “Infectiveness Reduction (%)” value ([8]; 120.74 µM) of the same compound?
Answer: The value was 33.15%.

Question: What about the “Number of Amastigotes per Macrophage” value ([8]; 120.74 µM) of the same compound?
Answer: Its value is 2.70.

Question: And the “Infection After Treatment (%)” value ([9]; 30.18 µM)?
Answer: The value was 75.60%.

Question: What about the “Infectiveness Reduction (%)” value ([9]; 30.18 µM) of the same compound?
Answer: Its value is 18.09%.

Question: What about the “Number of Amastigotes per Macrophage” value ([9]; 30.18 µM) of the same compound?
Answer: Its value is 3.30.

Question: What about the “Infection After Treatment (%)” value ([9]; 60.37 µM) of the same compound?
Answer: The value was 61.10%.

Question: And the “Infectiveness Reduction (%)” value ([9]; 60.37 µM)?
Answer: The value was 33.80%.

Question: And the “Number of Amastigotes per Macrophage” value ([9]; 60.37 µM)?
Answer: Its value is 2.80.

Question: And the “Infection After Treatment (%)” value ([9]; 120.74 µM)?
Answer: The value was 59.30%.

Question: What about the “Infectiveness Reduction (%)” value ([9]; 120.74 µM) of the same compound?
Answer: The value was 35.75%.

Question: And the “Number of Amastigotes per Macrophage” value ([9]; 120.74 µM)?
Answer: Its value is 3.80.

Question: And the “Infection After Treatment (%)” value ([10]; 30.18 µM)?
Answer: The value was 52.10%.

Question: And the “Infectiveness Reduction (%)” value ([10]; 30.18 µM)?
Answer: The value was 24.16%.

Question: And the “Number of Amastigotes per Macrophage” value ([10]; 30.18 µM)?
Answer: The value was 4.40.

Question: And the “Infection After Treatment (%)” value ([10]; 60.37 µM)?
Answer: Its value is 48.70%.

Question: What about the “Infectiveness Reduction (%)” value ([10]; 60.37 µM) of the same compound?
Answer: Its value is 29.11%.

Question: What about the “Number of Amastigotes per Macrophage” value ([10]; 60.37 µM) of the same compound?
Answer: Its value is 5.40.

Question: And the “Infection After Treatment (%)” value ([10]; 120.74 µM)?
Answer: Its value is 39.80%.

Question: And the “Infectiveness Reduction (%)” value ([10]; 120.74 µM)?
Answer: Its value is 42.07%.

Question: What about the “Number of Amastigotes per Macrophage” value ([10]; 120.74 µM) of the same compound?
Answer: The value was 3.30.
